Test results reported in patent US20260092074A1, “Annelated Pyridines as Steroidogenesis Inhibitors, Preparation Method and Use Thereof” (Guangzhou Vinnocent Pharmaceutical Limited, priority 2022, published 2026).

Key:
human CYP11B1 = target: T1, human CYP11B1 (Homo sapiens, UniProt P15538); assay: Inhibition of hCYP11B1 in transfected V79 cells; assay type: cell-based; conditions: hamster V79 cells expressing human CYP11B1; substrate 11-deoxycortisol 200 nM
T1 construct: expressed in transfected cells
T1 sequence (P15538 25-503): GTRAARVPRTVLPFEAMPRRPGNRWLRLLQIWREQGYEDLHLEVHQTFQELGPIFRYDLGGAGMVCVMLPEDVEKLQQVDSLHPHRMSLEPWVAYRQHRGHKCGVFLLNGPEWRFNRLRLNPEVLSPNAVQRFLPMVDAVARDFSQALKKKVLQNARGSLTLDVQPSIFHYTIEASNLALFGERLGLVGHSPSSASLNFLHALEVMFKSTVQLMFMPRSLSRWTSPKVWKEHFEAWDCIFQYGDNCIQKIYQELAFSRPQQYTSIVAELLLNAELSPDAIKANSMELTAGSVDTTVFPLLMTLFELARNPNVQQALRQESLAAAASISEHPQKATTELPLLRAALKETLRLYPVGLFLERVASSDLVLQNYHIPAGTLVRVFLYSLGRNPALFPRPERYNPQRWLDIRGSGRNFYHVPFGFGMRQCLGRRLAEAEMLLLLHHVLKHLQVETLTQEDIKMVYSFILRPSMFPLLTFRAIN
Experimental: (§1) Genes of human CYP11B1 and rat NADPH-P450 reductase were transfected into hamster V79 cells using a lentivirus vector, and stably-expressing cell lines were selected by taking advantages of the associated puromycin-resistance gene. Cultured cells were diluted and seeded in a 96-well plate with an amount of approximately 10,000 per well. After pre-incubation with suitable concentrations of the test compounds for 2 hours, 11-deoxycortisol of 200 nM was added as the substrate to initiate the catalytic reaction. After further incubation for 30 minutes, it was quenched with ethyl acetate. Subsequently, the substrate and product(s) were quantified using LC-MS/MS or HPLC at 260 nm, and the IC50 values were calculated according to inhibitory percentage.

human CYP11B2 = target: T2, human CYP11B2 (Homo sapiens, UniProt P19099); assay: Inhibition of hCYP11B2 in transfected V79 cells; assay type: cell-based; conditions: hamster V79 cells expressing human CYP11B2; substrate 11-deoxycorticosterone 200 nM
T2 construct: expressed in transfected cells
T2 sequence (P19099 25-503): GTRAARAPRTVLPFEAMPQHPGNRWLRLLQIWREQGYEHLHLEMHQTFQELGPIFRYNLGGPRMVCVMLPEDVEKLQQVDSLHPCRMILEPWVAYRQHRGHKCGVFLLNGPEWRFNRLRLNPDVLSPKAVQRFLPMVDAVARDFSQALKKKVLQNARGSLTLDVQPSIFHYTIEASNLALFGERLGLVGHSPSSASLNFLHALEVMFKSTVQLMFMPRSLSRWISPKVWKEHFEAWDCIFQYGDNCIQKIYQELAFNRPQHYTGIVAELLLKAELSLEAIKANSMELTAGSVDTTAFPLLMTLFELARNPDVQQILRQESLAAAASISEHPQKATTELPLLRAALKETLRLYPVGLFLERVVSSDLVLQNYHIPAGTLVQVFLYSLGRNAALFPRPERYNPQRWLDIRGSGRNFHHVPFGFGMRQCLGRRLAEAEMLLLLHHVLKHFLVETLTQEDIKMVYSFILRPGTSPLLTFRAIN
Experimental: as §1, with “CYP11B2” for “CYP11B1”, “11-deoxycorticosterone” for “11-deoxycortisol”

Row | SMILES | IC50 (human CYP11B1) | IC50 (human CYP11B2)
1 | Cc1ccc(C(=O)N2CCSc3c(-c4ccc(C#N)cc4)cncc32)cc1 [S89, 4-(4-(4-Methylbenzoyl)-3,4-dihydro-2H-pyrido[4,3-b][1,4]thiazin-8-yl)benzonitrile] | 2850 nM | 43 nM
2 | COc1cccc(C(=O)N2CCc3c(N4CCN(C#N)CC4)cncc32)c1 [C83, 4-(1-(3-Methoxybenzoyl)-2,3-dihydro-1H-pyrrolo[2,3-c]pyridin-4-yl)piperazine-1-carbonitrile] | 672 nM | 6 nM
3 | N#Cc1ccc(-c2cncc3c2CCN3C(=O)Cc2cccc(C(F)(F)F)c2)cc1 [C74, 4-(1-(2-(3-(Trifluoromethyl)phenyl)acetyl)-2,3-dihydro-1H-pyrrolo[2,3-c]pyridin-4-yl)benzonitrile] | 53 nM | 9 nM
4 | O=C(c1ccc(F)cc1)n1ccc2c(-c3cc4ccccc4s3)cncc21 [E31, (4-(Benzo[b]thiophen-2-yl)-1H-pyrrolo[2,3-c]pyridin-1-yl)(4-fluorophenyl)methanone] | 635 nM | 10 nM
5 | COc1ccc(C(=O)N2CCSc3c(-c4ccc(C#N)cc4)cncc32)cc1 [S6, 4-(4-(4-Methoxybenzoyl)-3,4-dihydro-2H-pyrido[4,3-b][1,4]thiazin-8-yl)benzonitrile] | 1740 nM | 53 nM
6 | N#Cc1ccc(-c2cncc3c2SCCN3C(=O)c2ccc(C(F)(F)F)cc2)cc1 [S88, 4-(4-(4-(Trifluoromethyl)benzoyl)-3,4-dihydro-2H-pyrido[4,3-b][1,4]thiazin-8-yl)benzonitrile] | 251 nM | 6.8 nM
7 | N#Cc1ccc(-c2cncc3c2CCN3S(=O)(=O)c2cccs2)cc1 [C17, 4-(1-(Thiophen-2-ylsulfonyl)-2,3-dihydro-1H-pyrrolo[2,3-c]pyridin-4-yl)benzonitrile] | 7.8 nM | 3.5 nM
8 | CC(C)(C)C(=O)N1CCc2c(-c3ccc(C#N)cc3)cncc21 [C42, 4-(1-Pivaloyl-2,3-dihydro-1H-pyrrolo[2,3-c]pyridin-4-yl)benzonitrile] | 1570 nM | 45 nM
9 | N#Cc1ccc(-c2cncc3c2OCCN3S(=O)(=O)C2CC(Cc3ccccc3)=NO2)cc1 (stereo not shown) [O103, 4-(4-((3-benzyl-4,5-dihydroisoxazol-5-yl)sulfonyl)-3,4-dihydro-2H-pyrido[4,3-b][1,4]oxazin-8-yl)benzonitrile] | 79 nM | 0.5 nM
10 | N#Cc1ccc(-c2cncc3c2ccn3S(=O)(=O)c2ccc3ccccc3c2)cc1 [E16, 4-(1-(Naphthalen-2-ylsulfonyl)-1H-pyrrolo[2,3-c]pyridin-4-yl)benzonitrile] | 0.6 nM | 0.1 nM
11 | N#Cc1ccc(-c2cncc3c2OCCN3C(=O)CCc2cccc(Cl)c2)cc1 [O50, 4-(4-(3-(3-Chlorophenyl)propanoyl)-3,4-dihydro-2H-pyrido[4,3-b][1,4]oxazin-8-yl) benzonitrile] | 42 nM | 5 nM
12 | N#Cc1ccc(-c2cncc3c2OCCN3S(=O)(=O)c2cccs2)cc1 [O16, 4-(4-(Thiophen-2-ylsulfonyl)-3,4-dihydro-2H-pyrido[4,3-b][1,4]oxazin-8-yl)benzonitrile] | 0.04 nM | 0.56 nM
13 | COc1ccc(S(=O)(=O)N2CCSc3c(-c4ccc(C#N)cc4)cncc32)cc1 [S13, 4-(4-((4-Methoxyphenyl)sulfonyl)-3,4-dihydro-2H-pyrido[4,3-b][1,4]thiazin-8-yl)benzonitrile] | 1.2 nM | 0.1 nM
14 | N#Cc1ccc(-c2cncc3c2SCCN3C(=O)c2cccc(C#N)c2)cc1 [S95, 3-(8-(4-Cyanophenyl)-3,4-dihydro-2H-pyrido[4,3-b][1,4]thiazine-4-carbonyl)benzonitrile] | 2060 nM | 79 nM
15 | O=C(C1CN(Cc2cccc(F)c2)C1)N1CCOc2c(-c3ccc4nccn4c3)cncc21 [O90, (1-(3-Fluorobenzyl)azetidin-3-yl)(8-(imidazo[1,2-a]pyridin-6-yl)-2,3-dihydro-4H-pyrido[4,3-b][1,4]oxazin-4-yl)methanone] | 3260 nM | 48.8 nM
16 | COc1ccc(S(=O)(=O)N2CCSc3c(-c4ccsc4)cncc32)cc1 [S36, 4-((4-Methoxyphenyl)sulfonyl)-8-(thiophen-3-yl)-3,4-dihydro-2H-pyrido[4,3-b][1,4]thiazine] | 30.4 nM | 5.6 nM
17 | Cc1cccc(S(=O)(=O)N2CC(C(=O)N3CCOc4c(-c5ccc(C#N)cc5)cncc43)C2)c1 [O70, 4-(4-(1-(m-Tolylsulfonyl)azetidine-3-carbonyl)-3,4-dihydro-2H-pyrido[4,3-b][1,4]oxazin-8-yl)benzonitrile] | 31.6 nM | 1.4 nM
18 | N#Cc1ccc(-c2cncc3c2OCCN3C(=O)c2cccc(Cl)c2)cc1 [O29, 4-(4-(3-Chlorobenzoyl)-3,4-dihydro-2H-pyrido[4,3-b][1,4]oxazin-8-yl)benzonitrile] | 1710 nM | 5.9 nM
19 | N#Cc1ccc(-c2cncc3c2OCCN3C(=O)N2CC3(CN(Cc4cccc(F)c4)C3)C2)cc1 [O73, 4-(4-(6-(3-Fluorobenzyl)-2,6-diazaspiro[3.3]heptane-2-carbonyl)-3,4-dihydro-2H-pyrido[4,3-b][1,4]oxazin-8-yl)benzonitrile] | 3470 nM | 45 nM
20 | N#Cc1ccc(-c2cncc3c2CCN3C(=O)c2cccc(F)c2)cc1 [C28, 4-(1-(3-fluorobenzoyl)-2,3-dihydro-1H-pyrrolo[2,3-c]pyridin-4-yl)benzonitrile] | 310 nM | 7 nM
21 | N#Cc1ccc(-c2cncc3c2ccn3C(=O)c2ccccc2[N+](=O)[O-])cc1 [E29, 4-(1-(2-Nitrobenzoyl)-1H-pyrrolo[2,3-c]pyridin-4-yl)benzonitrile] | 9 nM | 2.5 nM
22 | N#Cc1ccc(-c2cncc3c2OCCN3C(=O)CBr)cc1 [O34, 4-(4-(2-Bromoacetyl)-3,4-dihydro-2H-pyrido[4,3-b][1,4]oxazin-8-yl)benzonitrile] | 546 nM | 17.4 nM
23 | N#Cc1ccc(-c2cncc3c2SCCN3S(=O)(=O)c2ccc3ccccc3c2)cc1 [S23, 4-(4-(Naphthalen-2-ylsulfonyl)-3,4-dihydro-2H-pyrido[4,3-b][1,4]thiazin-8-yl)benzonitrile] | 1.9 nM | 0.2 nM
24 | COc1ccc(S(=O)(=O)N2CCSc3c(-c4cccc(Cl)c4)cncc32)cc1 [S29, 8-(3-Chlorophenyl)-4-((4-methoxyphenyl)sulfonyl)-3,4-dihydro-2H-pyrido[4,3-b][1,4]thia zine] | 7.3 nM | 1.5 nM
25 | N#Cc1ccc(-c2cncc3c2ccn3C(=O)c2cccc(C(F)(F)F)c2)cc1 [E23, 4-(1-(3-(Trifluoromethyl)benzoyl)-1H-pyrrolo[2,3-c]pyridin-4-yl)benzonitrile] | 79 nM | 0.8 nM
26 | N#Cc1ccc(-c2cncc3c2SCC(=O)N3C(=O)c2ccc(Cl)cc2)cc1 [S100, 4-(4-(4-chlorobenzoyl)-3-oxo-3,4-dihydro-2H-pyrido[4,3-b][1,4]thiazin-8-yl)benzonitrile] | 966 nM | 10.6 nM
27 | Cc1ccccc1C(=O)N1CCc2c(-c3ccc(C#N)cc3)cncc21 [C36, 4-(1-(2-Methylbenzoyl)-2,3-dihydro-1H-pyrrolo[2,3-c]pyridin-4-yl)benzonitrile] | 297 nM | 28 nM
28 | N#Cc1ccc(-c2cncc3c2OCCN3S(=O)(=O)c2ccc([N+](=O)[O-])cc2)cc1 [O9, 4-(4-((4-Nitrophenyl)sulfonyl)-3,4-dihydro-2H-pyrido[4,3-b][1,4]oxazin-8-yl)benzonitrile] | 1.1 nM | 0.11 nM
29 | N#Cc1ccc(-c2cncc3c2ccn3S(=O)(=O)c2ccc([N+](=O)[O-])cc2)cc1 [E1, 4-(1-((4-Nitrophenyl)sulfonyl)-1H-pyrrolo[2,3-c]pyridin-4-yl)benzonitrile] | 0.5 nM | 0.5 nM
